According to US12509407B2, “Biostimulant agent for treating plants and/or plant seed” (UNIFERX INTERNATIONAL GMBH, priority 2019, dated 2025):

How the values were obtained:
Type in all cases: in vivo
[1] = tested on: corn hybrid DKC 3511; test: Comparative test 1: field trial, growth of leaf area of corn under heat stress; details: corn DKC 3511, heat stress >30° C., 10 days after single spray treatment, 1.15 liters protein hydrolysate and/or 0.68 kilograms glycine betaine per hectare
Experimental: In a first field trial, the effect of the biostimulant agent according to the invention on the Growth of the leaf area of the corn hybrid DKC 3511 under heat stress was investigated. For comparison, the corresponding effect of the individual components protein hydrolysate and betaine was tested in parallel, each in the same amounts as contained in the biostimulant agent.
The field trial was conducted in June 2019 on soils with brittle black earth. The humus content was 3.2-3.4% and the depth of the humus layer was 60-70 cm. Soil pH was 6.2-6.6, alkaline hydrolyzed nitrogen content was […] per kilogram, available phosphorus compounds content was […] per kilogram, and available potassium content was 120-130 grams per kilogram. […]
(§1) All three groups of plants were treated once with the corresponding solution at the same times and with the same quantities. […]
(§2) To determine the biological effect of the different treatments, the leaf area of the plants (sum of leaf area from the third to the sixth leaf from the top in square meters per hectare of field area) was determined in each case before the start of the treatments and 10 days after the treatment. Thereby, the biological effect corresponds to the determined increase of the leaf area at the end of the study period in percent.

[2] = tested on: sunflower hybrid SI Diamantis; test: Comparative test 2: field trial, growth of leaf area of sunflowers under heat stress; details: heat stress >30° C., 10 days after treatment
Experimental: (§3) The field trial was conducted in June 2019 on soils with brittle black earth. The humus content was 3.2-3.4% and the depth of the humus layer was 60-70 cm. Soil pH was 6.2-6.6, alkaline hydrolyzed nitrogen content was […] per kilogram, available phosphorus compounds content was […] per kilogram, and available potassium content was […] per kilogram. The average annual precipitation was 633 millimeters, whereas the precipitation in June was 87 millimeters. The average annual temperature was 7.4° C., the average temperature in June was 17.6° C., the average relative humidity was 76%, and the average relative humidity in June was 66%.
(§4) During the duration of the field trial, the treated plants were exposed to heat stress with daily temperatures exceeding 30° C. […]
as §1
as §2, with “percent. […]” for “percent.”

[3] = tested on: soybean var. Niagara; test: Comparative test 3: field trial, increase in leaf area of soybean under heat stress; details: 10 days after treatment, third to sixth leaf from the top
Experimental: as §3, §4, §1
as §2, with “percent. […]” for “percent.”

C[N+](C)(C)CC(=O)O [betaine, glycine betaine]
increase in leaf area (biological effect) [1]: 0.2%
increase in leaf area (biological effect) [2]: no increase in leaf area was observed at all
increase in leaf area (biological effect) [3]: no increase in leaf area was observed at all
